Earlier results on one substance are cited in patent US4610818A, “N-acyl derivatives of dipeptides, their preparation and their use in the therapy of disorders, and agents for this purpose” (BASF Aktiengesellschaft, priority 1982, dated 1986).

This data set relates to tremor, rigor and akinesia. To be noted: Parkinson patients, MIF alone or in combination with L-dopa.

For the substance L-Pro-L-Leu-Gly-NH2 [MIF], the “effect on tremor, rigor and akinesia” value is given as “advantageous effect”.
